Measurements as given in patent publication US9199946B2, “Pyrimidinone carboxamide inhibitors of endothelial lipase” (BRISTOL-MYERS SQUIBB COMPANY, priority 2012, dated 2015).
Like-named read-outs stand apart in the source and are kept apart here.

Biological target: T1, Endothelial lipase (EL) (Homo sapiens, UniProt Q9Y5X9)
T1 construct: HT-1080 cells, which were transformed by RAGE technology (Athersys) to overexpress endogenous EL; endogenous in cells; conditioned medium used as the enzyme source
T1 sequence (Q9Y5X9 21-500): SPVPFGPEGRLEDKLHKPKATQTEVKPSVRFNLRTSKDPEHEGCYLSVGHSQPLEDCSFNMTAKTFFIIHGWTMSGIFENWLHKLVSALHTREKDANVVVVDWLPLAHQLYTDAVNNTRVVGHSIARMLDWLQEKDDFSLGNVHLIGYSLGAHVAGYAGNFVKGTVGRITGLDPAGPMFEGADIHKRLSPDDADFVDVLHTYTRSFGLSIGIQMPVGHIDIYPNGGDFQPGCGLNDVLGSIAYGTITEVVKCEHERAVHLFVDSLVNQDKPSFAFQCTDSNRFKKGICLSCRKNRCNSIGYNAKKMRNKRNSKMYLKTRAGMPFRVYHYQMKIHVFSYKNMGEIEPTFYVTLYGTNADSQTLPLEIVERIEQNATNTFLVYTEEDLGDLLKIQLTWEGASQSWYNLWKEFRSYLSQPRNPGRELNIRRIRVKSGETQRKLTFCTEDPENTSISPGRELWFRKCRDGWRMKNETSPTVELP
Assay: Endothelial lipase (EL) enzymatic assay with fluorescent substrate A10070 in DMPG vesicles
Format: biochemical
Experimental: Endothelial lipase activity was measured using a fluorescent substrate, A10070, (Invitrogen, CA) doped into an artificial vesicle containing DMPG (Avanti Polar Lipids) as the excipient. Vesicles were prepared by combining 285 μL of 1 mM DMPG in a 1:1 mixture of MeOH and CHCl3 with 15 μL of 1 mM A10070 in a 1:1 mixture of MeOH and CHCl3. The mixture was dried under nitrogen and resuspended in 150 μL of 50 mM HEPES pH 8.0 buffer containing 100 mM NaCl and 0.2 mM EDTA. The sample was allowed to sit at rt for 15 min and then was sonicated 3×4 mins on ice with a Branson Sonicator using duty cycle 1. This preparation provides vesicles with a mole fraction of 0.05 for the FRET substrate.
The enzymatic assay was measured using white, opaque 96-well half area plates. Each well contained 60 μL of assay buffer (50 mM HEPES pH 8.0, 50 mM NaCl and 1 mM CaCl2) and 2 ul of a DMSO solution containing compound of interest. Conditioned media obtained from HT-1080 cells, which were transformed by RAGE technology (Athersys) to overexpress endogenous EL, was added and the reaction was allowed to incubate for 20 min at 37° C. with gentle agitation. The reaction was started by the addition of 20 μL of a 1:4 dilution of vesicles. The final total reaction volume was 100 μL. The reaction rates were measured on a Gemini plate reader with an excitation wavelength of 488 nm and an emission of 530 nm. Readings were taken every 20 seconds for 10 min with agitation between each reading. The slope of the linear portion of the readout was used to calculate the rate of the reaction.

[1] = range observed in the EL assay, read-out: EL IC50 values

| Structure (SMILES) | IC50 [1] [µM] | IC50 (conditioned media from HT-1080 cells overexpressing endogenous EL, 20 min preincubation at 37° C., read-out: EL IC50) [µM] |
| --- | --- | --- |
| Nc1c(C(=O)N[C@H]2CCCc3cc(OCc4ccccc4)ccc32)[nH]c(=O)[nH]c1=O [Example 93, (S)-5-amino-N-(6-(benzyloxy)-1,2,3,4-tetrahydronaphthalen-1-yl)-2,6-dioxo-1,2,3,6-tetrahydropyrimidine-4-carboxamide] | ≤ 10 | – |
| CC(C)(C)OC(=O)N1CCC(NC(=O)c2[nH]c(=O)[nH]c(=O)c2N)C1 (stereo not drawn) [Example 62, tert-butyl 3-(5-amino-2,6-dioxo-1,2,3,6-tetrahydropyrimidine-4-carboxamido)pyrrolidine-1-carboxylate] | ≤ 10 | – |
| Nc1c(C(=O)N[C@@H]2CCc3cc(Br)ccc32)[nH]c(=O)[nH]c1=O [Example 65, (R)-5-amino-N-(5-bromo-2,3-dihydro-1H-inden-1-yl)-2,6-dioxo-1,2,3,6-tetrahydropyrimidine-4-carboxamide] | ≤ 10 | – |
| COC(=O)C[C@H]1C[C@H](NC(=O)c2[nH]c(=O)[nH]c(=O)c2N)c2ccccc2[C@@H]1c1ccccc1 [Example 21, methyl 2-((1S,2R,4S)-4-(5-amino-2,6-dioxo-1,2,3,6-tetrahydropyrimidine-4-carboxamido)-1-phenyl-1,2,3,4-tetrahydronaphthalen-2-yl)acetate] | ≤ 10 | – |
| COc1cccc2c1C[C@H](NC(=O)c1[nH]c(=O)[nH]c(=O)c1N)CC2 [Example 110, (R)-5-amino-N-(8-methoxy-1,2,3,4-tetrahydronaphthalen-2-yl)-2,6-dioxo-1,2,3,6-tetrahydropyrimidine-4-carboxamide] | ≤ 10 | – |
| Nc1c(C(=O)NC2CCCC(c3ccccc3)C2)[nH]c(=O)[nH]c1=O (single isomer, unassigned) [Example 100, 5-amino-2,6-dioxo-N-(3-phenylcyclohexyl)-1,2,3,6-tetrahydropyrimidine-4-carboxamide] | ≤ 10 | – |
| Nc1c(C(=O)N[C@H]2CCc3c(Br)cccc32)[nH]c(=O)[nH]c1=O [Example 60, (S)-5-amino-N-(4-bromo-2,3-dihydro-1H-inden-1-yl)-2,6-dioxo-1,2,3,6-tetrahydropyrimidine-4-carboxamide] | ≤ 10 | – |
| Nc1c(C(=O)N[C@H]2CCCc3ccc(F)cc32)[nH]c(=O)[nH]c1=O [Example 41, (S)-5-amino-N-(7-fluoro-1,2,3,4-tetrahydronaphthalen-1-yl)-2,6-dioxo-1,2,3,6-tetrahydropyrimidine-4-carboxamide] | ≤ 10 | – |
| COCCOc1ccc(C(=O)N[C@H]2CC[C@@H](NC(=O)c3[nH]c(=O)[nH]c(=O)c3N)CC2)cc1 [Example 120, 5-amino-N-(cis-4-(4-(2-methoxyethoxy)benzamido)cyclohexyl)-2,6-dioxo-1,2,3,6-tetrahydropyrimidine-4-carboxamide] | ≤ 10 | – |
| Nc1c(C(=O)N[C@@H]2CCc3ccccc32)[nH]c(=O)[nH]c1=O [Example 9, (R)-5-amino-N-(2,3-dihydro-1H-inden-1-yl)-2,6-dioxo-1,2,3,6-tetrahydropyrimidine-4-carboxamide] | ≤ 10 | – |
| COc1cc(C)c(OC)c2c1CC(NC(=O)c1[nH]c(=O)[nH]c(=O)c1N)CC2 (stereo not drawn) [Example 109, 5-amino-N-(5,8-dimethoxy-6-methyl-1,2,3,4-tetrahydronaphthalen-2-yl)-2,6-dioxo-1,2,3,6-tetrahydropyrimidine-4-carboxamide] | ≤ 10 | – |
| Nc1c(C(=O)N[C@@H]2CC[C@@H](c3ccccc3)c3ccccc32)[nH]c(=O)[nH]c1=O [Example 20, 5-amino-2,6-dioxo-N-((1R,4S)-4-phenyl-1,2,3,4-tetrahydronaphthalen-1-yl)-1,2,3,6-tetrahydropyrimidine-4-carboxamide] | ≤ 10 | – |
| Nc1c(C(=O)N[C@@H]2CCCc3c(OCC(F)(F)F)cccc32)[nH]c(=O)[nH]c1=O [Example 36, (R)-5-amino-2,6-dioxo-N-(5-(2,2,2-trifluoroethoxy)-1,2,3,4-tetrahydronaphthalen-1-yl)-1,2,3,6-tetrahydropyrimidine-4-carboxamide] | ≤ 10 | – |

Continued, values first:

| IC50 [1] [µM] | IC50 (conditioned media from HT-1080 cells overexpressing endogenous EL, 20 min preincubation at 37° C., read-out: EL IC50) [µM] | Structure (SMILES) |
| --- | --- | --- |
| ≤ 10 | – | O=C(N[C@H]1CC[C@H](C(=O)Nc2ccccc2)C1)c1[nH]c(=O)[nH]c(=O)c1O [Example 290, 5-hydroxy-2,6-dioxo-N-((1S,3S)-3-(phenylcarbamoyl)cyclopentyl)-1,2,3,6-tetrahydropyrimidine-4-carboxamide] |
| ≤ 10 | – | O=C(N[C@@H]1CCCc2cc(OCC(F)(F)F)ccc21)c1[nH]c(=O)[nH]c(=O)c1O [Example 256, (R)-5-hydroxy-2,6-dioxo-N-(6-(2,2,2-trifluoroethoxy)-1,2,3,4-tetrahydronaphthalen-1-yl)-1,2,3,6-tetrahydropyrimidine-4-carboxamide] |
| ≤ 10 | – | O=C(N[C@H]1CC[C@@H](c2ccccc2)CC1)c1[nH]c(=O)[nH]c(=O)c1NCc1ccc(F)cc1 [Example 205, 5-(4-Fluorobenzylamino)-2,6-dioxo-N-(cis-4-phenylcyclohexyl)-1,2,3,6-tetrahydropyrimidine-4-carboxamide] |
| ≤ 10 | – | Nc1c(C(=O)N[C@@H]2CC[C@@H](C(=O)N[C@H]3CC[C@@H](c4ccccc4)CC3)C2)[nH]c(=O)[nH]c1=O [Example 147, 5-amino-2,6-dioxo-N-((1R,3R)-3-(cis-4-phenylcyclohexylcarbamoyl)cyclopentyl)-1,2,3,6-tetrahydropyrimidine-4-carboxamide] |
| ≤ 10 | – | O=C(NC1CCC(c2cccc(OCc3ccccc3)c2)C1)c1[nH]c(=O)[nH]c(=O)c1O (stereo not drawn) [Example 282, N-(3-(3-(benzyloxy)phenyl)cyclopentyl)-5-hydroxy-2,6-dioxo-1,2,3,6-tetrahydropyrimidine-4-carboxamide] |
| ≤ 10 | – | Nc1c(C(=O)N[C@@H]2CC[C@@H](C(=O)N[C@H]3CC[C@@H](c4cccc(C(F)(F)F)c4)CC3)C2)[nH]c(=O)[nH]c1=O [Example 150, 5-amino-2,6-dioxo-N-((1R,3R)-3-(cis-4-(3-(trifluoromethyl)phenyl)cyclohexylcarbamoyl)cyclopentyl)-1,2,3,6-tetrahydropyrimidine-4-carboxamide] |
| ≤ 10 | – | C[C@H](Nc1c(C(=O)N[C@H]2CC[C@@H](c3ccccc3)CC2)[nH]c(=O)[nH]c1=O)C1CCCCC1 [Example 232, 5-((S)-1-cyclohexylethylamino)-2,6-dioxo-N-(cis-phenylcyclohexyl)-1,2,3,6-tetrahydropyrimidine-4-carboxamide] |
| ≤ 10 | – | Nc1c(C(=O)NC2CCN(c3ccccc3)C2)[nH]c(=O)[nH]c1=O (stereo not drawn) [Example 182, 5-amino-2,6-dioxo-N-(1-phenylpyrrolidin-3-yl)-1,2,3,6-tetrahydropyrimidine-4-carboxamide] |
| ≤ 10 | 0.01 | O=C(N[C@@H]1CCCc2c(OCc3ccccc3)cccc21)c1[nH]c(=O)[nH]c(=O)c1O [Example 258, (R)-N-(5-(benzyloxy)-1,2,3,4-tetrahydronaphthalen-1-yl)-5-hydroxy-2,6-dioxo-1,2,3,6-tetrahydropyrimidine-4-carboxamide] |
| ≤ 10 | – | O=C(N[C@H]1CC[C@@H](c2ccccc2)CC1)c1[nH]c(=O)[nH]c(=O)c1NCCN1CCCCC1 [Example 237, 2,6-dioxo-N-((1s,4s)-4-phenylcyclohexyl)-5-(2-(piperidin-1-yl)ethylamino)-1,2,3,6-tetrahydropyrimidine-4-carboxamide] |
| ≤ 10 | – | CC(C)(C)COc1ccc(C2CCC(NC(=O)c3[nH]c(=O)[nH]c(=O)c3O)C2)cc1 (stereo not drawn) [Example 293, 5-hydroxy-N-(3-(4-(neopentyloxy)phenyl)cyclopentyl)-2,6-dioxo-1,2,3,6-tetrahydropyrimidine-4-carboxamide] |
| ≤ 10 | – | O=C(N[C@@H]1CCc2cc(C(F)(F)F)ccc21)c1[nH]c(=O)[nH]c(=O)c1O [Example 249, (R)-5-hydroxy-2,6-dioxo-N-(5-(trifluoromethyl)-2,3-dihydro-1H-inden-1-yl)-1,2,3,6-tetrahydropyrimidine-4-carboxamide] |
| ≤ 10 | – | Nc1c(C(=O)N[C@H]2CC[C@@H](c3ccc(-c4ccc(CO)cc4)cc3)C2)[nH]c(=O)[nH]c1=O [Example 177, 5-amino-N-((1S,3R)-3-(4′-(hydroxymethyl)biphenyl-4-yl)cyclopentyl)-2,6-dioxo-1,2,3,6-tetrahydropyrimidine-4-carboxamide] |
